ChEMBL document CHEMBL1681756, “Synthesis and evaluation of novel pyrimidine-based dual EGFR/Her-2 inhibitors” (Bioorg Med Chem Lett, 2011)

Columns and labels:
[1] = target: Receptor tyrosine-protein kinase erbB-2 (Homo sapiens, UniProt P04626); experiment: Inhibition of HER2 by homogeneous time-resolved fluorescence assay
[2] = target: Epidermal growth factor receptor (Homo sapiens, UniProt P00533); experiment: Inhibition of EGFR by homogeneous time-resolved fluorescence assay
BT-474 = experiment: Antiproliferative activity against human BT474 cells by methylene blue staining method
[3] = Aqueous solubility of the compound at pH 6.8; type: physicochemical
[4] = Lipophilicity log P of the compound; type: physicochemical; settings: octanol/water

Chain of Receptor tyrosine-protein kinase erbB-2 (P04626 whole entry): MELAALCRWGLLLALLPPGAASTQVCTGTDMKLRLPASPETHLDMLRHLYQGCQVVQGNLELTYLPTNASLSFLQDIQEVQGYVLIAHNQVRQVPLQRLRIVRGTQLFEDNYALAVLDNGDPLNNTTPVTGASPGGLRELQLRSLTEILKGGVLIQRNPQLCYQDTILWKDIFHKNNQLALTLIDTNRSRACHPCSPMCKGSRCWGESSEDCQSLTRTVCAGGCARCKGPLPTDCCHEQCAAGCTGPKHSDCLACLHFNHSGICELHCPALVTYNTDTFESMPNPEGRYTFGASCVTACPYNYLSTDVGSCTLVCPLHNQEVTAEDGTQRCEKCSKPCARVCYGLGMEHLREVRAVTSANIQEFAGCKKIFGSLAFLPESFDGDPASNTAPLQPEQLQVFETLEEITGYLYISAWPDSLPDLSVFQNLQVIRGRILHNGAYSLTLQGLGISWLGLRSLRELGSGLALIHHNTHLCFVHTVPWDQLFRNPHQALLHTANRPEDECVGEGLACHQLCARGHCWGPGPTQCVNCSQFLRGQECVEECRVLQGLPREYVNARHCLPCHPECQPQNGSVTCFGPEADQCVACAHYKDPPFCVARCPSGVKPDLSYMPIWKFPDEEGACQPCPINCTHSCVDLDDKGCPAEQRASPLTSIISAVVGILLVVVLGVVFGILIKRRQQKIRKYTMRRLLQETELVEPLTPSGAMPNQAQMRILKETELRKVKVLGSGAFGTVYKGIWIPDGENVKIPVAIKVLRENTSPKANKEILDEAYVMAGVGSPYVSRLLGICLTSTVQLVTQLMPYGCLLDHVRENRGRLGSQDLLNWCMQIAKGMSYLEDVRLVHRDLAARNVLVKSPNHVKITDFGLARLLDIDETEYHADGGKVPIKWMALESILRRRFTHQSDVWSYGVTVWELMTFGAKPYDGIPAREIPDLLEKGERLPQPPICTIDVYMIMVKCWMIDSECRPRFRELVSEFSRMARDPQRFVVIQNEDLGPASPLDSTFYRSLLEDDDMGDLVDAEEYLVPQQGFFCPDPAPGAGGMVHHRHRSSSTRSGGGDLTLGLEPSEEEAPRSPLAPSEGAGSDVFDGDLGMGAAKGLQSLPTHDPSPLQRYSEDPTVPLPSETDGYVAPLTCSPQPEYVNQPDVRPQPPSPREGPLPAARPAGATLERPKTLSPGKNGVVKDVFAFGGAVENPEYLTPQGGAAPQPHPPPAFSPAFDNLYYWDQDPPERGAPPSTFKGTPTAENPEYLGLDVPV
Chain of Epidermal growth factor receptor (P00533 whole entry): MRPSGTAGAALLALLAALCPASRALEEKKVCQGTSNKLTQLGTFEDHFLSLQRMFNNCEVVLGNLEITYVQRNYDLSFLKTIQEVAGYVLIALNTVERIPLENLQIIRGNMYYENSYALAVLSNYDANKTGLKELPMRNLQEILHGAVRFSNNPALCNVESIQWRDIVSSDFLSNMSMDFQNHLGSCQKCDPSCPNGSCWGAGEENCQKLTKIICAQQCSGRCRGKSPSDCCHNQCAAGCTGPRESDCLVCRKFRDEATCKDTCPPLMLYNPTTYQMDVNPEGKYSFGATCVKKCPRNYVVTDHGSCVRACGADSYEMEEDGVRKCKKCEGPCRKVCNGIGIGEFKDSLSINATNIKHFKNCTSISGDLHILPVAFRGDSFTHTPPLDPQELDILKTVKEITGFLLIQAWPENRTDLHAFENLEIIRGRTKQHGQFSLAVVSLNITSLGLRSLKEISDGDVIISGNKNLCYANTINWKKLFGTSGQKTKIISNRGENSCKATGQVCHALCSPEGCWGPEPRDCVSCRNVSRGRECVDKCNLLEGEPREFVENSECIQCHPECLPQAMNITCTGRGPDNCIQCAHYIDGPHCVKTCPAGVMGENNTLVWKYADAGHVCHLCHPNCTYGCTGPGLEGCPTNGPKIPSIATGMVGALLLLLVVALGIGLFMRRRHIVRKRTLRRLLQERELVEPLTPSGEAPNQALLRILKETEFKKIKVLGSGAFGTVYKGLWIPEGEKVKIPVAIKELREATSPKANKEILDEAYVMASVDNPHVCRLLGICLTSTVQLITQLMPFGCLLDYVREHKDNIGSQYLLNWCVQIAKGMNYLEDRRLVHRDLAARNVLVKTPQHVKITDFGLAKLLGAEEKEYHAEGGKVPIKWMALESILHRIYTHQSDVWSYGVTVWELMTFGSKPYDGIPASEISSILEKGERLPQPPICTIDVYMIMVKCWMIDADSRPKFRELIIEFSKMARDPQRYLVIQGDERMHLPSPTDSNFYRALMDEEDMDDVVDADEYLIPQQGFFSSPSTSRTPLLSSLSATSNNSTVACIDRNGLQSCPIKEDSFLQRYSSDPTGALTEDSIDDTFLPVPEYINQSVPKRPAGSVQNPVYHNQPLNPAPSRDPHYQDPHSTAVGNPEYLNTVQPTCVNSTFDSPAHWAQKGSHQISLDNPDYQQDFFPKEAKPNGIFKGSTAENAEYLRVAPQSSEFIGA

Cc1cc(Nc2ccc(OCc3cccc(F)c3)c(Cl)c2)ncn1
IC50 [1]: 6500 nM | IC50 [2]: 1100 nM

Fc1cccc(COc2ccc(Nc3cc(-c4ccccc4)ncn3)cc2Cl)c1
IC50 [1]: 6300 nM | IC50 [2]: 1200 nM

Fc1cccc(COc2ccc(Nc3cc(-c4cccnc4)ncn3)cc2Cl)c1
IC50 [1]: > 100000 nM | IC50 [2]: 47000 nM

Fc1cccc(COc2ccc(Nc3cc(-c4ccsc4)ncn3)cc2Cl)c1
IC50 [1]: 36000 nM

Fc1cccc(COc2ccc(Nc3cc(N4CCCC4)ncn3)cc2Cl)c1
IC50 [1]: > 100000 nM | IC50 [2]: > 100000 nM

Fc1cccc(COc2ccc(Nc3cc(Oc4ccccc4)ncn3)cc2Cl)c1
IC50 [1]: > 100000 nM | IC50 [2]: 10000 nM

Cc1ncnc(Nc2ccc(OCc3cccc(F)c3)c(Cl)c2)c1C
IC50 [1]: 140 nM | IC50 [2]: 17 nM

CCc1ncnc(Nc2ccc(OCc3cccc(F)c3)c(Cl)c2)c1C
IC50 [1]: 2900 nM | IC50 [2]: 640 nM

Cc1c(Nc2ccc(OCc3cccc(F)c3)c(Cl)c2)ncnc1-c1ccccc1
IC50 [1]: 65000 nM | IC50 [2]: 20000 nM

Cc1ncnc(Nc2ccc(OCc3cccc(F)c3)c(Cl)c2)c1/C=N/OCCN1CCOCC1
IC50 [1]: 740 nM | IC50 [2]: 68 nM

Cc1ncnc(Nc2ccc(OCc3cccc(F)c3)c(Cl)c2)c1/C=N/OCCCN1CCOCC1
IC50 [1]: 1800 nM | IC50 [2]: 65 nM

Cc1ncnc(Nc2ccc(OCc3cccc(F)c3)c(Cl)c2)c1-c1cccc(CN2CCOCC2)c1
IC50 [1]: 3750 nM | IC50 [2]: 590 nM

Cc1ncnc(Nc2ccc(OCc3cccc(F)c3)c(Cl)c2)c1C#CCCCN1CCOCC1
IC50 [1]: 150 nM | IC50 [2]: 34 nM

Cc1ncnc(Nc2ccc(OCc3cccc(F)c3)c(Cl)c2)c1C#Cc1ccc(CN2CCOCC2)cc1
IC50 (BT-474): 394 nM | solubility ([3]; aqueous, read-out: solubility): > 50 µM | IC50 [1]: 440 nM | IC50 [2]: 240 nM | logP [4]: 6.96

C/C(=C\c1c(C)ncnc1Nc1ccc(OCc2cccc(F)c2)c(Cl)c1)C(=O)NCCN1CCOCC1
IC50 [1]: 81 nM | IC50 [2]: 28 nM

Cc1ncnc(Nc2ccc(OCc3cccc(F)c3)c(Cl)c2)c1/C=C/c1ccc(CN2CCOCC2)cc1
IC50 (BT-474): 644 nM | IC50 [1]: 190 nM | IC50 [2]: 120 nM | logP [4]: 7.73

Cc1ncnc(Nc2ccc(OCc3cccc(F)c3)c(Cl)c2)c1/C=C(\F)C(=O)NCCN1CCOCC1
IC50 [1]: 78 nM

Cc1ncnc(Nc2ccc(OCc3cccc(F)c3)c(Cl)c2)c1/C=C/C(=O)NCCN1CCOCC1
IC50 [1]: 318 nM | IC50 [2]: 114 nM

Cc1ncnc(Nc2ccc(OCc3cccc(F)c3)c(Cl)c2)c1/C=C(\F)C(=O)NCCN1CCCC1
IC50 (BT-474): 1130 nM | solubility ([3]; aqueous, read-out: solubility): > 50 µM | IC50 [1]: 19 nM | IC50 [2]: 3 nM | logP [4]: 5.98

Cc1ncnc(Nc2ccc(OCc3cccc(F)c3)c(Cl)c2)c1/C=C(\F)C(=O)NCCS(C)(=O)=O
IC50 [1]: 71 nM | IC50 [2]: 19 nM

CCN1CCN(C(=O)/C(F)=C/c2c(C)ncnc2Nc2ccc(OCc3cccc(F)c3)c(Cl)c2)CC1
IC50 [1]: 102 nM | IC50 [2]: 156 nM

Cc1ncnc(Nc2ccc(OCc3cccc(F)c3)c(Cl)c2)c1C#CCCN1CCOCC1
IC50 [1]: 74 nM | IC50 [2]: 13 nM

Cc1ncnc(Nc2ccc(OCc3cccc(F)c3)c(Cl)c2)c1C#CCN1CCOCC1
IC50 [1]: 5380 nM | IC50 [2]: 4130 nM

Cc1ncnc(Nc2ccc(OCc3cccc(F)c3)c(Cl)c2)c1C#C/C=N/OCCN1CCOCC1
IC50 [1]: 70 nM | IC50 [2]: 38 nM

Cc1ncnc(Nc2ccc(OCc3cccc(F)c3)c(Cl)c2)c1C#CCCCN1CCCC1
IC50 [1]: 95 nM

CCN1CCN(CCCC#Cc2c(C)ncnc2Nc2ccc(OCc3cccc(F)c3)c(Cl)c2)CC1
IC50 (BT-474): 1440 nM | solubility ([3]; aqueous, read-out: solubility): > 50 µM | IC50 [1]: 36 nM | IC50 [2]: 9 nM | logP [4]: 6.23

Cc1ncnc(Nc2ccc(OCc3cccc(F)c3)c(Cl)c2)c1C#CCCNCc1ccccc1
IC50 [1]: 810 nM | IC50 [2]: 270 nM

Cc1ncnc(Nc2ccc(OCc3cccc(F)c3)c(Cl)c2)c1/C=C/c1ccc(CN2CCOCC2)cc1.Cl
solubility ([3]; aqueous, read-out: solubility): 2 µM

Fc1cccc(COc2ccc(Nc3ccncn3)cc2Cl)c1
IC50 [1]: 25000 nM | IC50 [2]: 920 nM

CS(=O)(=O)CCNCc1ccc(-c2ccc3ncnc(Nc4ccc(OCc5cccc(F)c5)c(Cl)c4)c3c2)o1.Cc1ccc(S(=O)(=O)O)cc1.Cc1ccc(S(=O)(=O)O)cc1.O [LAPATINIB DITOSYLATE]
IC50 (BT-474): 100 nM | solubility ([3]; buffer): 24 µM | logP [4]: 6.67
